From ChEMBL document CHEMBL5053512, “Discovery and Preclinical Pharmacology of an Oral Bromodomain and Extra-Terminal (BET) Inhibitor Using Scaffold-Hopping and Structure-Guided Drug Design” (J Med Chem, 2021)
pIC50: −log10 of the molar value.

Columns and labels:
[1] = Antitumour activity against patient-derived human BR1977F cells xenografted in mouse model at 1.6 mg/kg, po bid, 5 days on and 2 days off for 2 weeks; format: functional; details: 120 h, time 5 day, read-out: TGI
[2] = Cmax in human LG0787F cells xenografted in NSG mouse at 1 mg/kg/day, po qd; format: ADME, organism-based; set-up: dose 1 mg/kg/day, route po; details: in vivo
[3] = Oral bioavailability in rat at 5 mg/kg; format: ADME, organism-based; details: in vivo
NCI-H211 = test: Anticlonogenic activity against human NCI-H211 cells; format: functional, cell-based
Cytochrome P450 2D6 = Cytochrome P450 2D6 (Homo sapiens, UniProt P10635); test: Inhibition of CYP2D6 (unknown origin); format: ADME
[4] = Antitumour activity against patient-derived human PAT129 cells xenografted in mouse model at 1.6 mg/kg, po bid, 5 days on and 2 days off for 2 weeks; format: functional; details: PAT129, 120 h, time 5 day, read-out: TGI
[5] = Inhibition of c-MYC expression in human JJN3R cells measured after 4 hrs; format: functional, cell-based; details: JJN-3R
[6] = Drug concentration at steady state in human LG0787F cells xenografted in NSG mouse at 1 mg/kg/day infused continuously over 6 days using Alzet pump; format: ADME, organism-based; details: in vivo, 144 h, time 6 day
NCI-H146 = test: Anticancer activity against human NCI-H146 cells; format: functional, cell-based
[7] = target: T1, Voltage-gated inwardly rectifying potassium channel KCNH2 (Homo sapiens, UniProt Q12809); test: Inhibition of human ERG by patch-clamp assay
[8] = target: Bromodomain-containing protein 2 (Homo sapiens, UniProt P25440); test: Inhibition of human BRD2 measured by TR-FRET assay
[9] = Oral bioavailability in mouse at 5 mg/kg; format: ADME, organism-based; details: in vivo
[10] = Permeability coefficient of the compound by PAMPA; format: ADME; details: read-out: permeability
NCI-H441 = test: Anticancer activity against human NCI-H441 cells; format: functional, cell-based
[11] = Antitumour activity against human JJN3R cells measured after 72 hrs by MTS assay; format: functional, cell-based; details: JJN-3R
[12] = target: T1, Voltage-gated inwardly rectifying potassium channel KCNH2; test: Inhibition of human ERG by flux assay
[13] = Antitumour activity against human LG0787F cells xenografted in NSG mouse assessed as tumour growth inhibition at 0.5 mg/kg/day infused continuously over 6 days using Alzet pump; format: functional; details: 144 h, time 6 day, read-out: TGI
HCC44 = test: Anticancer activity against human HCC44 cells; format: functional, cell-based
[14] = Metabolic stability in mouse liver microsomes assessed as parent compound remaining at 0.5 uM after 10 mins; format: ADME, Microsome; details: read-out: Stability
OCI-AML-3 = test: Anticancer activity against human OCI-AML3 cells; format: functional, cell-based
NCI-H1355 = test: Anticancer activity against human NCI-H1355 cells; format: functional, cell-based
[15] = Anticancer activity against human HCC33 cells; format: functional, cell-based
[16] = Volume of distribution at steady state in mouse at 1.75 mg/kg, iv; format: ADME, organism-based; details: in vivo, read-out: Vdss
[17] = Antitumour activity against patient-derived human PAT150 cells xenografted in mouse model at 1.6 mg/kg, po bid, 5 days on and 2 days off for 2 weeks; format: functional; details: PAT150, 120 h, time 5 day, read-out: TGI
[18] = Anticancer activity against human HCC1588 cells; format: functional, cell-based
[19] = Volume of distribution at steady state in monkey at 0.1 mg/kg, iv; format: ADME, organism-based, Macaca mulatta; details: rhesus monkey, in vivo, read-out: Vdss
[20] = Permeability coefficient across apical to basolateral side in human Caco-2 cells; format: ADME, cell-based; details: read-out: permeability
[21] = Antitumour activity against human LG0787F cells xenografted in NSG mouse assessed as tumour growth inhibition at 1 mg/kg/day, po qd; format: functional; details: read-out: TGI
[22] = Antitumour activity against patient-derived human PAT136 cells xenografted in mouse model at 1.6 mg/kg, po bid, 5 days on and 2 days off for 2 weeks; format: functional; details: PAT136, 120 h, time 5 day, read-out: TGI
Cytochrome P450 1A2 = Cytochrome P450 1A2 (Homo sapiens, UniProt P05177); test: Inhibition of CYP1A2 (unknown origin); format: ADME
NCI-H1793 = test: Anticancer activity against human NCI-H1793 cells; format: functional, cell-based
[23] = Antitumour activity against patient-derived human BR0851F cells xenografted in mouse model at 1.6 mg/kg, po bid, 5 days on and 2 days off for 2 weeks; format: functional; details: 120 h, time 5 day, read-out: TGI
[24] = AUC (0 to 7 hrs) in mouse at 30 mg/kg, po; format: ADME, organism-based; set-up: time < 7 hr, dose 30 mg/kg, route po; details: in vivo
[25] = target: CREB-binding protein (Homo sapiens) (UniProt Q92793)
Description: Binding affinity to CREBBP (unknown origin) assessed as change in melting temperature of protein

Cytochrome P450 3A4 = Cytochrome P450 3A4 (Homo sapiens, UniProt P08684); test: Inhibition of CYP3A4 (unknown origin); format: ADME
[26] = Antitumour activity against patient-derived human PAT014 cells xenografted in mouse model at 1.6 mg/kg, po bid, 5 days on and 2 days off for 2 weeks; format: functional; details: PAT014, 120 h, time 5 day, read-out: TGI
[27] = Anticancer activity against human HCC15 cells; format: functional, cell-based
[28] = Anticancer activity against human JJN3R cells; format: functional, cell-based; details: JJN-3R
[29] = Antitumour activity against patient-derived human BR0869F cells xenografted in mouse model at 1.6 mg/kg, po bid, 5 days on and 2 days off for 2 weeks; format: functional; details: 120 h, time 5 day, read-out: TGI
[30] = Antitumour activity against human LG0787F cells xenografted in NSG mouse at 1 mg/kg/day infused continuously over 6 days using Alzet pump; format: functional; details: 144 h, time 6 day, read-out: TGI
MOLM-13 = test: Anticancer activity against human MOLM-13 cells; format: functional, cell-based
[31] = Antitumour activity against human LG0787F cells xenografted in NSG mouse assessed as tumour growth inhibition at 1 mg/kg/day, po bid; format: functional; details: read-out: TGI
NCI-H647 = test: Anticancer activity against human NCI-H647 cells; format: functional, cell-based
NCI-H1703 = test: Anticancer activity against human NCI-H1703 cells; format: functional, cell-based
[32] = Total plasma clearance in rat at 1 mg/kg, iv; format: ADME, organism-based
[33] = Antitumour activity against patient-derived human PAT160 cells xenografted in mouse model at 1.6 mg/kg, po bid, 5 days on and 2 days off for 2 weeks; format: functional; details: PAT160, 120 h, time 5 day, read-out: TGI
DMS-114 = test: Anticancer activity against human DMS-114 cells; format: functional, cell-based
[34] = Antitumour activity against patient-derived human PAT149 cells xenografted in mouse model at 1.6 mg/kg, po bid, 5 days on and 2 days off for 2 weeks; format: functional; details: PAT149, 120 h, time 5 day, read-out: TGI
[35] = Efflux ratio of permeability in human Caco-2 cells; format: ADME, cell-based
[36] = target: Bromodomain-containing protein 4 (Homo sapiens, UniProt O60885); test: Inhibition of human BRD4 (1 to 477 residues) measured after 60 mins by TR-FRET assay
NCI-H1792 = test: Anticancer activity against human NCI-H1792 cells; format: functional, cell-based
NCI-H2228 = test: Anticancer activity against human […] cells; format: functional, cell-based
SW900 = test: Anticancer activity against human SW900 cells; format: functional, cell-based

T1 sequence (Q12809 whole entry): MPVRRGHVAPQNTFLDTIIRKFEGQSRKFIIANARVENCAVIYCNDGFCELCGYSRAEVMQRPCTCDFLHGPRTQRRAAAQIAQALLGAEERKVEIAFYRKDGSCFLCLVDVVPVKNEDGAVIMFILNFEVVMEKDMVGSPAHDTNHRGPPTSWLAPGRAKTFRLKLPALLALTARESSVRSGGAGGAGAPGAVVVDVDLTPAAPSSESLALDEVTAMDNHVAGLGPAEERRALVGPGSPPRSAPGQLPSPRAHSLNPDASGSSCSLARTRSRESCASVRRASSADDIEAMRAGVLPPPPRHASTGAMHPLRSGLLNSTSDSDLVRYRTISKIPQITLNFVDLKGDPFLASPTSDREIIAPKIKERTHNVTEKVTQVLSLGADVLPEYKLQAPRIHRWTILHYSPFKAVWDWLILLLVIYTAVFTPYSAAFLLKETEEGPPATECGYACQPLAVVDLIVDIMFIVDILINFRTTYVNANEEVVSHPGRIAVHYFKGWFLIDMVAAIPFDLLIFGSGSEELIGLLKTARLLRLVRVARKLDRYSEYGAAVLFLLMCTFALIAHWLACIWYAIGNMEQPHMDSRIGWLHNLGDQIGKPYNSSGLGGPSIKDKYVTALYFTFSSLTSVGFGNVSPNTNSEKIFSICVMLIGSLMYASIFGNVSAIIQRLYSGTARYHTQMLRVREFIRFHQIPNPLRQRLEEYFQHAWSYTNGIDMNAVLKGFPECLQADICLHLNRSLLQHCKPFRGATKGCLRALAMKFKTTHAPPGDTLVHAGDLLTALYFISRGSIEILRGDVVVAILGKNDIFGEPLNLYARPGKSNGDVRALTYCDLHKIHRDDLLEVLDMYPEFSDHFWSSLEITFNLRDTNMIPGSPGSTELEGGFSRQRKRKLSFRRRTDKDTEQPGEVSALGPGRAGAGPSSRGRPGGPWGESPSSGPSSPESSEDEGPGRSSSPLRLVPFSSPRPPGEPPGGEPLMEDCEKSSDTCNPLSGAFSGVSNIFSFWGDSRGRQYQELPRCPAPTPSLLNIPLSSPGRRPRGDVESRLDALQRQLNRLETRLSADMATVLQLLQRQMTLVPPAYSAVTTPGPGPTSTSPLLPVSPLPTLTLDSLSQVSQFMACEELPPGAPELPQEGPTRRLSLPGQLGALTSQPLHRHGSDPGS
Cytochrome P450 3A4, sequence (P08684 whole entry): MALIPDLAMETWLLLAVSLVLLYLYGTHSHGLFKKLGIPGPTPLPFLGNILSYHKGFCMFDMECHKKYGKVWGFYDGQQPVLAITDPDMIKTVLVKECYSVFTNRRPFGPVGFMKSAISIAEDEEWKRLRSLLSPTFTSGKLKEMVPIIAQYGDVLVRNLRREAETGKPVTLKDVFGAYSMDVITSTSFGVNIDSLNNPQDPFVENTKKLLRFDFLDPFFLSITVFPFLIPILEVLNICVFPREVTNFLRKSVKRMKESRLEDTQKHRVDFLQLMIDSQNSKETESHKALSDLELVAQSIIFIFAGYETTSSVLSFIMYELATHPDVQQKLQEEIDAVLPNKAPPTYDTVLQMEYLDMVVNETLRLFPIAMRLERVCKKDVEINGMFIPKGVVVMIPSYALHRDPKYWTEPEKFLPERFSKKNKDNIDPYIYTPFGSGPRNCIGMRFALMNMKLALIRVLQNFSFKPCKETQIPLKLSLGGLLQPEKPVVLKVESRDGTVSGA
Cytochrome P450 1A2, sequence (P05177 whole entry): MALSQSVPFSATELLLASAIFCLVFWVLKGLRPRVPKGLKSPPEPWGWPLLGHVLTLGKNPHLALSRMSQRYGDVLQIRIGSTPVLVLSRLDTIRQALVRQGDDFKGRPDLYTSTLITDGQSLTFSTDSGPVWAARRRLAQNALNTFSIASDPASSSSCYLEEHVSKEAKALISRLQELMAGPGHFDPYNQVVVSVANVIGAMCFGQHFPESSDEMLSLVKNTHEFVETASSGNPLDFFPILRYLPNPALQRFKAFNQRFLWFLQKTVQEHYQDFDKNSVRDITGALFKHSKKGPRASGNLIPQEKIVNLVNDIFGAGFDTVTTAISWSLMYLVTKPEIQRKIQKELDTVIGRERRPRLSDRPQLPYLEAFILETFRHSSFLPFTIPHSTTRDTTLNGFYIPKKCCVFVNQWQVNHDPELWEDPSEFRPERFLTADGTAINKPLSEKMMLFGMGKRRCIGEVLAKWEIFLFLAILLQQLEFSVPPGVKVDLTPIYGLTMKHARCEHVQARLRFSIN
Cytochrome P450 2D6, sequence (P10635 whole entry): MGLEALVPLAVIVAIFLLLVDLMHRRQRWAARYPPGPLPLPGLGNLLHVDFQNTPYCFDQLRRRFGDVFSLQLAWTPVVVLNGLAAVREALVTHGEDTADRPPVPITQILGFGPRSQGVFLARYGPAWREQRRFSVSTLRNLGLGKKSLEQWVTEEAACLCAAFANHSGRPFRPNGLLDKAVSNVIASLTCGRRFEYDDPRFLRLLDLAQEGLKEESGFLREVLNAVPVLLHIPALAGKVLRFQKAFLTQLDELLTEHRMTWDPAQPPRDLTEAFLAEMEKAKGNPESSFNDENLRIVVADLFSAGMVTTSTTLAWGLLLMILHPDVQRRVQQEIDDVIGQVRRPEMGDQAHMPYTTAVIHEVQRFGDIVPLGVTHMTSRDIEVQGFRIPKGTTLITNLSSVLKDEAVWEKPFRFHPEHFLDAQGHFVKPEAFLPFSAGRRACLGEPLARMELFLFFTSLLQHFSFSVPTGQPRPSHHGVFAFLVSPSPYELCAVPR
CREB-binding protein (Homo sapiens), sequence (Q92793 2-2442 limits assumed): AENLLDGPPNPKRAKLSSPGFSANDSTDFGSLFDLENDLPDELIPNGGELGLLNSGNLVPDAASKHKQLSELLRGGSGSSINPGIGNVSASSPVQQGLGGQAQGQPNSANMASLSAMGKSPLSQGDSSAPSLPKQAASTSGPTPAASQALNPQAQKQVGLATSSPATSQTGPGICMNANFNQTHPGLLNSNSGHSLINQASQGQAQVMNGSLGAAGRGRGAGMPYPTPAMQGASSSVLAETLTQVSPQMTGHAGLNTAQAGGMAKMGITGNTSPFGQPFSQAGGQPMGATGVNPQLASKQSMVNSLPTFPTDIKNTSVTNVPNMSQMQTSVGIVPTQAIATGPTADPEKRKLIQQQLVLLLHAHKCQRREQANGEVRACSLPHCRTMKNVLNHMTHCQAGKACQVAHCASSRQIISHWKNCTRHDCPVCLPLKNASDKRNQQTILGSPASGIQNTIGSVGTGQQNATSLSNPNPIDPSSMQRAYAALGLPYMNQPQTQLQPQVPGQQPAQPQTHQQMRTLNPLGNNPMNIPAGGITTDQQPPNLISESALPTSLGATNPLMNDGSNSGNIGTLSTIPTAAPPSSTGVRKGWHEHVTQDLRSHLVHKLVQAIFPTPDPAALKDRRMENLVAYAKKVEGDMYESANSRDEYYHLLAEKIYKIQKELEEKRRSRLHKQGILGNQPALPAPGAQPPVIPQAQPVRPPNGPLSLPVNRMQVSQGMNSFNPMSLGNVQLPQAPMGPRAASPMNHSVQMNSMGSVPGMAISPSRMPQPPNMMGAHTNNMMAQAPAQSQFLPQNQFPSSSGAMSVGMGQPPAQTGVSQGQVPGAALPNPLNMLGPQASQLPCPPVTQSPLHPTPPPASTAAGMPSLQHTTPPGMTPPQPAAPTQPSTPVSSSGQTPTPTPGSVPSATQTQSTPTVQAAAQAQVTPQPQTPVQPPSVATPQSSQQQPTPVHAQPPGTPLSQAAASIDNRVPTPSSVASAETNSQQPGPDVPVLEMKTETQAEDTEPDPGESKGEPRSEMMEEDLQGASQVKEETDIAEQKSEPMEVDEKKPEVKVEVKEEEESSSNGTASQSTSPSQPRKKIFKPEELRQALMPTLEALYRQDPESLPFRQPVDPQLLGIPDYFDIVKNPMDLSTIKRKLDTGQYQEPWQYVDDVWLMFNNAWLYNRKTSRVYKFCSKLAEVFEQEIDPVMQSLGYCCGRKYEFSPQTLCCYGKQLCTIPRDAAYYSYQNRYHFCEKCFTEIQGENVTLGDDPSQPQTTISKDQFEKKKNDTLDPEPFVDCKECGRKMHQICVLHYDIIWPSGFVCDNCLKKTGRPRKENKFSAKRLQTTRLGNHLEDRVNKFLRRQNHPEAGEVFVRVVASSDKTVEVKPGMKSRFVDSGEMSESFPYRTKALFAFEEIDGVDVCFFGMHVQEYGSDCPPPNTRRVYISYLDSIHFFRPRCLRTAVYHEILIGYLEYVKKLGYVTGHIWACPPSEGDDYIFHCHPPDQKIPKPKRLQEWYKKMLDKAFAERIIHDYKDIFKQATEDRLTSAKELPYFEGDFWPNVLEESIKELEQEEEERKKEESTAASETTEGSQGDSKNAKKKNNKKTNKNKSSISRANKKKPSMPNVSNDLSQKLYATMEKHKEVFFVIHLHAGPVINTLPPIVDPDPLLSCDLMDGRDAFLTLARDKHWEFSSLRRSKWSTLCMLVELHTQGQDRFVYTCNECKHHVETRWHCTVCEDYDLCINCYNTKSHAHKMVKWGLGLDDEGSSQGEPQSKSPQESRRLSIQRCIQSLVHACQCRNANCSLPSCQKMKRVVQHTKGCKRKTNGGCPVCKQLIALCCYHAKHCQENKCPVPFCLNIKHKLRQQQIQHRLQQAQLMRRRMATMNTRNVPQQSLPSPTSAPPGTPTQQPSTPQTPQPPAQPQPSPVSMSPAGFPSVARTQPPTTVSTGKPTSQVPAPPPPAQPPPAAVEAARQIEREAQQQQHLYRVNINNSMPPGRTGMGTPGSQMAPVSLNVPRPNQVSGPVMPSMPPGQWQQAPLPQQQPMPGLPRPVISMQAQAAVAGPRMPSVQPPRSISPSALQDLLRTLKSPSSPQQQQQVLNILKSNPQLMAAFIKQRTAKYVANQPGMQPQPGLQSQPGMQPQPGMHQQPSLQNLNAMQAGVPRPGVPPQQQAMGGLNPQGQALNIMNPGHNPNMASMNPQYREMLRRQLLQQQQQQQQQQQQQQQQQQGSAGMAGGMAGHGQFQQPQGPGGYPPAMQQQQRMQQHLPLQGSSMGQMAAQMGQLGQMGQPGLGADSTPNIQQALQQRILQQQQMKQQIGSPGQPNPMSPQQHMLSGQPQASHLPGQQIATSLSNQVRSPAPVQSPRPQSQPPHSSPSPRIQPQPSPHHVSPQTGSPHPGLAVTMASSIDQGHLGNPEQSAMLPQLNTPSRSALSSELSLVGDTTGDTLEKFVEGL

Cmax [2]: 150 nM
bioavailability [3]: 47%
pIC50 (NCI-H211): 8.25
pIC50 (Cytochrome P450 2D6): < 4.70
pIC50 [5]: 9.15
Css [6]: 17 nM
pIC50 (NCI-H146): 9.39
pIC50 [8]: 8.85
bioavailability [9]: 100%
Papp [10]: 66.1 ×10⁻⁶ cm/s
pIC50 (NCI-H441): 6.93
pIC50 (HCC44): 8.57
remaining at 10 min, 0.5 µM [14]: 66%
pIC50 (OCI-AML-3): 9.15
pIC50 (NCI-H1355): < 6.30
pIC50 [15]: 9.64
Vd [16]: 1.9 L/kg
pIC50 [18]: < 6.30
Vd [19]: 4.2 L/kg
Papp A→B [20]: 13.3 ×10⁻⁶ cm/s
pIC50 (Cytochrome P450 1A2): < 4.70
pIC50 (NCI-H1793): < 6.30
AUC(0-t) at 7 h [24]: 49.6 µM·h
ΔTm [25]: 5.6 °C
pIC50 (Cytochrome P450 3A4): < 4.70
pIC50 [27]: 6.44
pIC50 [28]: 9.15
pIC50 (MOLM-13): 8.77
pIC50 (NCI-H647): 6.36
pIC50 (NCI-H1703): < 6.30
clearance [32]: 41 mL/min/kg
pIC50 (DMS-114): 9.49
efflux ratio [35]: 2.6
pIC50 [36]: 8.96
pIC50 (NCI-H1792): < 6.30
pIC50 (NCI-H2228): 6.78
pIC50 (SW900): < 6.30
Structure (SMILES): Cc1nnn(C)c1-c1cnc2c3ccc(C(C)(C)O)cc3n([C@H](c3ccccc3)C3CCOCC3)c2c1 [EZOBRESIB]
inhibition in vivo at 1.6 mg/kg [1]: 88%
inhibition in vivo at 1.6 mg/kg [4]: 65%
pIC50 [7]: 4.55
pIC50 [11]: 8.44
pIC50 [12]: < 4.10
inhibition in vivo at 0.5 mg/kg/day [13]: 62%
inhibition in vivo at 1.6 mg/kg [17]: 62%
inhibition in vivo at 1 mg/kg/day [21]: 50%
inhibition in vivo at 1.6 mg/kg [22]: 92%
inhibition in vivo at 1.6 mg/kg [23]: 49%
inhibition in vivo at 1.6 mg/kg [26]: 70%
inhibition in vivo at 1.6 mg/kg [29]: 56%
inhibition in vivo at 1 mg/kg/day [30]: 78%
inhibition in vivo at 1 mg/kg/day [31]: 70%
inhibition in vivo at 1.6 mg/kg [33]: 9%
inhibition in vivo at 1.6 mg/kg [34]: 101%
